Several values for one entry are separate records, joined by “and”; a condition that tells them apart may be missing. Equal entries are not always repeated.
Tests used:
c-Met = c-Met (Homo sapiens, UniProt P08581); assay: Ki determination for the inhibition of c-Met, coupled enzyme system; assay type: biochemical; details: 200 μM ATP, 10 μM polyGluTyr, 80 nM c-Met, 30° C.
How it was run: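 Coupled pyruvate kinase/lactate dehydrogenase NADH assay with 80 nM c-Met, 200 μM ATP, 10 μM polyGluTyr in pH 7.5 HEPES, 1.5% DMSO at 30° C. Compound (0.006–12.5 μM final, 12-point) preincubated 10 min; ATP started reaction, rates read over 10 min; Ki derived from rate versus inhibitor concentration.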

KDR = KDR (Homo sapiens, UniProt P35968); assay: KDR enzyme assay, coupled enzyme assay; assay type: biochemical; details: 300 μM ATP, 10 μM poly E4Y, 30 nM KDR, 37° C.
Chain of KDR (P35968 20-1356): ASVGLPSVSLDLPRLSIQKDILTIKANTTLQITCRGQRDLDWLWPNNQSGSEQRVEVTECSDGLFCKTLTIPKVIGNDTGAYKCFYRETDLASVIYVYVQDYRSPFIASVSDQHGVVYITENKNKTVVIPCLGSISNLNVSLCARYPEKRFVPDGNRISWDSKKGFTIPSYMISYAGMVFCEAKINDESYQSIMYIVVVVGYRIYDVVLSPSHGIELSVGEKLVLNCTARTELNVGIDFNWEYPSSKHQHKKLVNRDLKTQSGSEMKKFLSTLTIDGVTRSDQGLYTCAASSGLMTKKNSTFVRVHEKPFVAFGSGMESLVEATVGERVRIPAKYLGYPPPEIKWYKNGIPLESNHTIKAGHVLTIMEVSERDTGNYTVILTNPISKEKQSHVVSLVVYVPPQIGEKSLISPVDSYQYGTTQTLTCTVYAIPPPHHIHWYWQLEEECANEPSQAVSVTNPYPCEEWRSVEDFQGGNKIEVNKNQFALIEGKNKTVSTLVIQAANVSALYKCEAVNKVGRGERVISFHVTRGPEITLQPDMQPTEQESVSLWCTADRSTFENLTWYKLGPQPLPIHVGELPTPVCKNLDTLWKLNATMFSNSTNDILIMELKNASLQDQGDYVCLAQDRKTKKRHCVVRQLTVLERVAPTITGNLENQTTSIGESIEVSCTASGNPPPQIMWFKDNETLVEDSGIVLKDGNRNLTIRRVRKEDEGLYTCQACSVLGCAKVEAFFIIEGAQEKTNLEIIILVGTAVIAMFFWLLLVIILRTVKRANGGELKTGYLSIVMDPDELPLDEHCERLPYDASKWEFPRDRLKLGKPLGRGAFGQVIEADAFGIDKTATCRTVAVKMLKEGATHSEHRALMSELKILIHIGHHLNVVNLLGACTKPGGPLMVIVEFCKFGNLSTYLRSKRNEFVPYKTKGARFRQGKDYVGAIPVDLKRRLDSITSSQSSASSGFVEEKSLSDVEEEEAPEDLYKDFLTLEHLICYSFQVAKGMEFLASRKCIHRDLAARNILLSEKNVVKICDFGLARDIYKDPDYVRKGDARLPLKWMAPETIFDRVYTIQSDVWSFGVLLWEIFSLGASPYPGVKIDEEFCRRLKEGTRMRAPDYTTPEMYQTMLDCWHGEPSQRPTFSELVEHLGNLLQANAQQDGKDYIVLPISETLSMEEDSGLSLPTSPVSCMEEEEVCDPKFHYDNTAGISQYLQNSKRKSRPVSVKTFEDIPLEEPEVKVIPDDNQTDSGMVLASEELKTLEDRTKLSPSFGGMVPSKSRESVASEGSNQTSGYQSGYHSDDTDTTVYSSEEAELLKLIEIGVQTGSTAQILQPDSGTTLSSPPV
Method: Compounds were screened for their ability to inhibit KDR using a standard coupled enzyme assay (Fox et al., Protein Sci., (1998) 7, 2249). Assays were carried out in a mixture of 200 mM HEPES 7.5, 10 mM MgCl2, 25 mM NaCl, 1 mM DTT and 1.5% DMSO. Final substrate concentrations in the assay were 300 μM ATP (Sigma Chemicals) and 10 μM poly E4Y (Sigma). Assays were carried out at 37° C. and 30 nM KDR. Final concentrations of the components of the coupled enzyme system were 2.5 mM phosphoenolpyruvate, 200 μM NADH, 30 μg/ML pyruvate kinase and 10 μg/ml lactate dehydrogenase.
An assay stock buffer solution was prepared containing all of the reagents listed above, with the exception of ATP and the test compound of interest. 177 μl of the stock solution was placed in a 96 well plate followed by addition of 3 μl of 2 mM DMSO stock containing the test compound (final compound concentration 30 μM). The plate was preincubated for about 10 minutes at 37° C. and the reaction initiated by addition of 20 μl of ATP (final concentration 300 μM). Rates of reaction were obtained using a Molecular Devices plate reader (Sunnyvale, Calif.) over a 5 minute read time at 37° C.

Chain of c-Met (P08581 25-1390): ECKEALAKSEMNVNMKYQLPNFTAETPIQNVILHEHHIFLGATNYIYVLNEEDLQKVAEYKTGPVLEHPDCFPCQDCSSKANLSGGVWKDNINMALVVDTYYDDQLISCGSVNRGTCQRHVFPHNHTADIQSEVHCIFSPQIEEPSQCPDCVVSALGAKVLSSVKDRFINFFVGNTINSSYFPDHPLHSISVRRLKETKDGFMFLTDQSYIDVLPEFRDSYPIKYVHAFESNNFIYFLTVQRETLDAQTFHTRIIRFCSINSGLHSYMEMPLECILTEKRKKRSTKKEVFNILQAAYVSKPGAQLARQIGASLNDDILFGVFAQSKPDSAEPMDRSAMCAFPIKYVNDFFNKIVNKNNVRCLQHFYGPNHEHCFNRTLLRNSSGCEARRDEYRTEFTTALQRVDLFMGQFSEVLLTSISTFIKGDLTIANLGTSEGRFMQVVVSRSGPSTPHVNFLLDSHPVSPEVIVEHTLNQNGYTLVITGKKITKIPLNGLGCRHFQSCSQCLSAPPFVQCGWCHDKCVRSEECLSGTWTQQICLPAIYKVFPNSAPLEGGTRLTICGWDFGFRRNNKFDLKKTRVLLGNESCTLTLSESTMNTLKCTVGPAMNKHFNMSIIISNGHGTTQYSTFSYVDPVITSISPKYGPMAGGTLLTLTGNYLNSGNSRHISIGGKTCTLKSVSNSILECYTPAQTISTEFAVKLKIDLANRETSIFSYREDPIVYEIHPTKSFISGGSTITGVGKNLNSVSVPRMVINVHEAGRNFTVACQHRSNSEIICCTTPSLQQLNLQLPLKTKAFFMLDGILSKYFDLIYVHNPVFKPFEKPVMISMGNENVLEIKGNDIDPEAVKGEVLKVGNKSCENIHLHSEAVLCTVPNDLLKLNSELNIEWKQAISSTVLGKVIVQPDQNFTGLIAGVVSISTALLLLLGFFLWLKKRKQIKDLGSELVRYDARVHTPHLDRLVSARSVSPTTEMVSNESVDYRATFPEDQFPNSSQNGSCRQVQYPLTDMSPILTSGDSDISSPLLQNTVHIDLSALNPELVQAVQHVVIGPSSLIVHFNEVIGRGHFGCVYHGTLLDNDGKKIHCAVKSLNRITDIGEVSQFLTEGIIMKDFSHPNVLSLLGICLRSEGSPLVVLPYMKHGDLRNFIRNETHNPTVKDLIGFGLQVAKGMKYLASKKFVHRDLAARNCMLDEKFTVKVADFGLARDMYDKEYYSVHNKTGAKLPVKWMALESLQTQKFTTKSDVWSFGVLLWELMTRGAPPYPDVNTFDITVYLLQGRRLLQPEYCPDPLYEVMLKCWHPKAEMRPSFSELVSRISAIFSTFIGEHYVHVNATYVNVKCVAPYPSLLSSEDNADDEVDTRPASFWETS

For `CN1CCN(C(=O)[C@H]2C[C@H]2c2cnc3[nH]cc(-c4oncc4-c4cccc(F)c4F)c3c2)CC1` (relative stereo) [Compound 143, cis-(2-{3-[4-(2,3-Difluoro-phenyl)-isoxazol-5-yl]-1H-pyrrolo[2,3-b]pyridin-5-yl}-cyclopropyl)-(4-methyl-piperazin-1-yl)-methanone], the Ki (c-Met) was 200 to 1000 nM and 1000 to 12500 nM.
In the case of `Clc1cccc(-c2cnoc2-c2c[nH]c3ncccc23)c1Cl` [Compound 2, 3-[4-(2,3-Dichloro-phenyl)-isoxazol-5-yl]-1H-pyrrolo[2,3-b]pyridine], the Ki (c-Met) is reported as under 200 nM and the Ki (KDR) is reported as 200 to 1000 nM.
For `Fc1cccc(Cc2cnoc2-c2c[nH]c3ncccc23)c1F` [Compound 36, 3-[4-(2,3-Difluoro-benzyl)-isoxazol-5-yl]-1H-pyrrolo[2,3-b]pyridine], the Ki (c-Met) was 1000 to 12500 nM and the Ki (KDR) was 1000 to 12500 nM.
With `Fc1ccc(-c2cnoc2-c2c[nH]c3ncccc23)c(F)c1F` [Compound 40, 3-[4-(2,3,4-Trifluoro-phenyl)-isoxazol-5-yl]-1H-pyrrolo [2,3-b]pyridine] the Ki (c-Met) was under 200 nM and the Ki (KDR) was 200 to 1000 nM.
`c1cnc2[nH]cc(-c3oncc3C3CCCCC3)c2c1` [Compound 47, 3-(4-Cyclohexyl-isoxazol-5-yl)-1H-pyrrolo[2,3-b]pyridine] showed a Ki (c-Met) of 1000 to 12500 nM and a Ki (KDR) of 1000 to 12500 nM.
Work on `Oc1cnc2[nH]cc(-c3oncc3-c3cccc(Cl)c3Cl)c2c1` [Compound 48, 3-[4-(2,3-Dichloro-phenyl)-isoxazol-5-yl]-1H-pyrrolo[2,3-b]pyridin-5-ol] yielded a Ki (c-Met) of under 200 nM and a Ki (KDR) of under 200 nM.
With `COc1cnc2[nH]cc(-c3oncc3-c3cccc(Cl)c3Cl)c2c1` [Compound 49, 3-[4-(2,3-Dichloro-phenyl)-isoxazol-5-yl]-5-methoxy-1H-pyrrolo[2,3-b]pyridine] the Ki (c-Met) was under 200 nM and the Ki (KDR) was under 200 nM.
Work on `CN(C)CC#Cc1cnc2[nH]cc(-c3oncc3-c3cccc(F)c3F)c2c1` [Compound 53, (3-{3-[4-(2,3-Difluoro-phenyl)-isoxazol-5-yl]-1H-pyrrolo[2,3-b]pyridin-5-yl}-prop-2-ynyl)-dimethyl-amine] yielded a Ki (c-Met) of under 200 nM and a Ki (KDR) of 200 to 1000 nM.
`CN(C)c1ccnc2[nH]cc(-c3oncc3-c3cccc(F)c3F)c12` [Compound 56, {3-[4-(2,3-Difluoro-phenyl)-isoxazol-5-yl]-1H-pyrrolo[2,3-b]pyridin-4-yl}-dimethyl-amine] showed a Ki (c-Met) of 1000 to 12500 nM and a Ki (KDR) of 200 to 1000 nM.
With `Fc1cccc(-c2cnoc2-c2c[nH]c3ncc(-c4ccncc4)cc23)c1F` [Compound 57, 3-[4-(2,3-Difluoro-phenyl)-isoxazol-5-yl]-5-pyridin-4-yl-1H-pyrrolo[2,3-b]pyridine] the Ki (c-Met) was under 200 nM and the Ki (KDR) was 200 to 1000 nM.
With `Fc1cccc(-c2cnoc2-c2c[nH]c3ncc(-c4ccccc4)cc23)c1F` [Compound 58, 3-[4-(2,3-Difluoro-phenyl)-isoxazol-5-yl]-5-phenyl-1H-pyrrolo[2,3-b]pyridine] the Ki (c-Met) was under 200 nM and the Ki (KDR) was under 200 nM.
Compound `Fc1cccc(-c2cnoc2-c2c[nH]c3ncc(-c4cccnc4)cc23)c1F` [Compound 59, 3-[4-(2,3-Difluoro-phenyl)-isoxazol-5-yl]-5-pyridin-3-yl-1H-pyrrolo[2,3-b]pyridine] has a Ki (c-Met) of under 200 nM and a Ki (KDR) of 200 to 1000 nM.
For `CN1CCC(c2cnc3[nH]cc(-c4oncc4-c4cccc(F)c4F)c3c2)CC1` [Compound 60, 3-[4-(2,3-Difluoro-phenyl)-isoxazol-5-yl]-5-(1-methyl-piperidin-4-yl)-1H-pyrrolo[2,3-b]pyridine], the Ki (c-Met) was under 200 nM.
`Fc1cccc(-c2cnoc2-c2c[nH]c3ncc(C4CCNCC4)cc23)c1F` [Compound 62, 3-[4-(2,3-Difluoro-phenyl)-isoxazol-5-yl]-5-piperidin-4-yl-1H-pyrrolo[2,3-b]pyridine] was tested, and the Ki (c-Met) was under 200 nM and the Ki (KDR) was 1000 to 12500 nM.
With `CC(=O)N1CCC(c2cnc3[nH]cc(-c4oncc4-c4cccc(F)c4F)c3c2)CC1` [Compound 63, 1-(4-{3-[4-(2,3-Difluoro-phenyl)-isoxazol-5-yl]-1H-pyrrolo[2,3-b]pyridin-5-yl}-piperidin-1-yl)-ethanone] the Ki (c-Met) was under 200 nM and the Ki (KDR) was 1000 to 12500 nM.
With `N#CCC(=O)N1CCC(c2cnc3[nH]cc(-c4oncc4-c4cccc(F)c4F)c3c2)CC1` [Compound 64, 3-(4-{3-[4-(2,3-Difluoro-phenyl)-isoxazol-5-yl]-1H-pyrrolo[2,3-b]pyridin-5-yl}-piperidin-1-yl)-3-oxo-propionitrile] the Ki (c-Met) was under 200 nM and the Ki (KDR) was 1000 to 12500 nM.
Work on `C=Cc1cnc2[nH]cc(-c3oncc3-c3cccc(F)c3F)c2c1` [Compound 66, 3-[4-(2,3-Difluoro-phenyl)-isoxazol-5-yl]-5-vinyl-1H-pyrrolo[2,3-b]pyridine] yielded a Ki (c-Met) of under 200 nM and a Ki (KDR) of under 200 nM.
Compound `Fc1ccc(-c2cnc3[nH]cc(-c4oncc4-c4cccc(F)c4F)c3c2)cn1` [Compound 69, 3-[4-(2,3-Difluoro-phenyl)-isoxazol-5-yl]-5-(6-fluoro-pyridin-3-yl)-1H-pyrrolo[2,3-b]pyridine] has a Ki (c-Met) of under 200 nM and a Ki (KDR) of under 200 nM.
For `CCN1CCC(c2cnc3[nH]cc(-c4oncc4-c4cccc(F)c4F)c3c2)CC1` [Compound 72, 3-[4-(2,3-Difluoro-phenyl)-isoxazol-5-yl]-5-(1-ethyl-piperidin-4-yl)-1H-pyrrolo[2,3-b]pyridine], the Ki (c-Met) was under 200 nM.
`Fc1cccnc1-c1cnc2[nH]cc(-c3oncc3-c3cccc(F)c3F)c2c1` [Compound 74, 3-[4-(2,3-Difluoro-phenyl)-isoxazol-5-yl]-5-(3-fluoro-pyridin-2-yl)-1H-pyrrolo[2,3-b]pyridine] gave a Ki (c-Met) of under 200 nM and a Ki (KDR) of 1000 to 12500 nM.
Compound `Fc1cccc(-c2cnoc2-c2c[nH]c3ncc(-c4ncccn4)cc23)c1F` [Compound 75, 3-[4-(2,3-Difluoro-phenyl)-isoxazol-5-yl]-5-pyrimidin-2-yl-1H-pyrrolo[2,3-b]pyridine] has a Ki (c-Met) of under 200 nM and a Ki (KDR) of 200 to 1000 nM.
Compound `COc1ccnc(-c2cnc3[nH]cc(-c4oncc4-c4cccc(F)c4F)c3c2)c1` [Compound 78, 3-[4-(2,3-Difluoro-phenyl)-isoxazol-5-yl]-5-(4-methoxy-pyridin-2-yl)-1H-pyrrolo[2,3-b]pyridine] has a Ki (c-Met) of under 200 nM and a Ki (KDR) of under 200 nM.
For `CN(C)C(=O)c1ccc(-c2cnc3[nH]cc(-c4oncc4-c4cccc(F)c4F)c3c2)nc1` [Compound 79, 6-{3-[4-(2,3-Difluoro-phenyl)-isoxazol-5-yl]-1H-pyrrolo [2,3-b]pyridin-5-yl}-N,N-dimethyl-nicotinamide], the Ki (c-Met) was under 200 nM and the Ki (KDR) was under 200 nM.
Work on `CN(C)c1ccnc(-c2cnc3[nH]cc(-c4oncc4-c4cccc(F)c4F)c3c2)c1` [Compound 80, (2-{3-[4-(2,3-Difluoro-phenyl)-isoxazol-5-yl]-1H-pyrrolo[2,3-b]pyridin-5-yl}-pyridin-4-yl)-dimethyl-amine] yielded a Ki (c-Met) of 1000 to 12500 nM and a Ki (KDR) of under 200 nM.
`CN(C)Cc1cc(Cl)nc(-c2cnc3[nH]cc(-c4oncc4-c4cccc(F)c4F)c3c2)c1` [Compound 81, (2-Chloro-6-{3-[4-(2,3-difluoro-phenyl)-isoxazol-5-yl]-1H-pyrrolo[2,3-b]pyridin-5-yl}-pyridin-4-ylmethyl)-dimethyl-amine] gave a Ki (c-Met) of under 200 nM and a Ki (KDR) of under 200 nM.
`Nc1ccnc(-c2cnc3[nH]cc(-c4oncc4-c4cccc(F)c4F)c3c2)c1` [Compound 83, 2-{3-[4-(2,3-Difluoro-phenyl)-isoxazol-5-yl]-1H-pyrrolo [2,3-b]pyridin-5-yl}-pyridin-4-ylamine] gave a Ki (c-Met) of under 200 nM and a Ki (KDR) of under 200 nM.
In the case of `Fc1cccc(-c2cnoc2-c2c[nH]c3ncc(-c4cncnc4)cc23)c1F` [Compound 85, 3-[4-(2,3-Difluoro-phenyl)-isoxazol-5-yl]-5-pyrimidin-5-yl-1H-pyrrolo[2,3-b]pyridine], the Ki (c-Met) is reported as under 200 nM and the Ki (KDR) is reported as 1000 to 12500 nM.
For `Oc1cccc(-c2cnc3[nH]cc(-c4oncc4-c4cccc(F)c4F)c3c2)c1` [Compound 87, 3-{3-[4-(2,3-Difluoro-phenyl)-isoxazol-5-yl]-1H-pyrrolo [2,3-b]pyridin-5-yl}-phenol], the Ki (c-Met) was under 200 nM and the Ki (KDR) was 200 to 1000 nM.
For `Fc1cccc(-c2cnoc2-c2c[nH]c3ncc(-c4ccc(CN5CCOCC5)cc4)cc23)c1F` [Compound 92, 3-[4-(2,3-Difluoro-phenyl)-isoxazol-5-yl]-5-(4-morpholin-4-ylmethyl-phenyl)-1H-pyrrolo[2,3-b]pyridine], the Ki (c-Met) was under 200 nM and the Ki (KDR) was 200 to 1000 nM.
With `CN1CCN(Cc2ccc(-c3cnc4[nH]cc(-c5oncc5-c5cccc(F)c5F)c4c3)cc2)CC1` [Compound 94, 3-[4-(2,3-Difluoro-phenyl)-isoxazol-5-yl]-5-[4-(4-methyl-piperazin-1-ylmethyl)-phenyl]-1H-pyrrolo[2,3-b]pyridine] the Ki (c-Met) was under 200 nM and the Ki (KDR) was under 200 nM.
In the case of `Cn1ccc2c(-c3oncc3-c3cccc(F)c3F)c[nH]c2c1=O` [Compound 144, 3-[4-(2,3-Difluoro-phenyl)-isoxazol-5-yl]-6-methyl-1,6-dihydro-pyrrolo[2,3-c]pyridin-7-one], the Ki (c-Met) is reported as 200 to 1000 nM.
Compound `O=c1[nH]ccc2c(-c3oncc3-c3cccc(F)c3F)c[nH]c12` [Compound 145, 3-[4-(2,3-Difluoro-phenyl)-isoxazol-5-yl]-1,6-dihydro-pyrrolo[2,3-c]pyridin-7-one] has a Ki (c-Met) of 1000 to 12500 nM.
`Nc1[nH]c2ncccc2c1-c1oncc1-c1cccc(F)c1F` [Compound 152] was tested, and the Ki (c-Met) was 1000 to 12500 nM.

— US7446199B2, “Compositions useful as inhibitors of protein kinases” (Vertex Pharmaceuticals Incorporated, priority 2003, dated 2008)
